We go through ten compounds from publication PMC8944975, “Secretin Receptor as a Target in Gastrointestinal Cancer: Expression Analysis and Ligand Development” (Biomedicines, 2022).

Read-outs that look alike come from different tables or passages of the source. Where a SMILES comes first, the peptide text is derived from it. [ ]: non-standard residue; d: D form.

The target of this assay is human SCTR (Homo sapiens, UniProt P47872). Description: β-arr2-GFP translocation assay run in antagonist mode. For IC50, inhibition of β-arr2-GFP translocation (Table 3): peptide 5 min at 37 °C. It counts as cell-based. Also noted: expressed in transfected cells; host or cells: U2OS (human osteosarcoma), stably co-transfected with β-arrestin2-GFP. The text has this: U2OS-SCTR/β-arr2-GFP: human osteosarcoma cell line U2OS (purchased from ATCC/LGC Standards, Wesel, Germany) were stably transfected with plasmids encoding SCTR (Homo sapiens) and the fusion protein β-arrestin2-green fluorescent protein (GFP) (Rattus norvegicus-Aequorea victoria) (β-arr2-GFP).
Sequence of human SCTR (P47872 23-440): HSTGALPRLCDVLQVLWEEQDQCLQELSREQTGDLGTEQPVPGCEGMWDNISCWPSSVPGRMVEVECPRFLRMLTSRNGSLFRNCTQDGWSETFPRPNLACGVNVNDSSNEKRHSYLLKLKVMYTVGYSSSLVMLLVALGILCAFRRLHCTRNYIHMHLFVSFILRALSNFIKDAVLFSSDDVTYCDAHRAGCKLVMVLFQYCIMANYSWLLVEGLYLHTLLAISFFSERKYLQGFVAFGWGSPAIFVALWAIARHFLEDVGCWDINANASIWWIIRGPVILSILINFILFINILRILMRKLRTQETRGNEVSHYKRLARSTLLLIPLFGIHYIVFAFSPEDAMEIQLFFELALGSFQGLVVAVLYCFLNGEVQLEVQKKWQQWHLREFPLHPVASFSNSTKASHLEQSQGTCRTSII
For analysis of antagonistic effects on SCTR, a slightly modified protocol of the β-arr2-GFP translocation was used. […] For analysis, cells were terminally fixed and permeabilized as previously described. The additional monitoring of IDCC fluorescence in the near-infrared channel (667 nm) provided another measure for receptor binding and activation.

Setting [1] is: read-out: IC50, inhibition of β-arr2-GFP translocation (Table 3).

As to `CC(C)C[C@H](NC(=O)CNC(=O)[C@H](CCC(N)=O)NC(=O)[C@H](CC(C)C)NC(=O)[C@H](CC(C)C)NC(=O)[C@H](CCCNC(=N)N)NC(=O)[C@H](CCC(N)=O)NC(=O)[C@H](CC(C)C)NC(=O)[C@H](CCCNC(=N)N)NC(=O)[C@H](C)NC(=O)CNC(=O)[C@H](CCC(=O)O)NC(=O)[C@H](CCCNC(=N)N)NC(=O)[C@H](CC(C)C)NC(=O)[C@H](CCCNC(=N)N)NC(=O)[C@H](CO)NC(=O)[C@H](CC(C)C)NC(=O)[C@H](CCC(=O)O)NC(=O)[C@H](CO)NC(=O)[C@@H](NC(=O)[C@@H](N)Cc1ccccc1)[C@@H](C)O)C(=O)N[C@H](C(=O)O)C(C)C` [Peptide 119], the IC50 (read-out: IC50, inhibition of β-arr2-GFP translocation (Table 2)) came to 2.34 ± 0.366 µM.
Regarding `CC(C)C[C@H](NC(=O)CNC(=O)[C@H](CCC(N)=O)NC(=O)[C@H](CC(C)C)NC(=O)[C@H](CC(C)C)NC(=O)[C@H](CCCNC(=N)N)NC(=O)[C@H](CCC(N)=O)NC(=O)[C@H](CC(C)C)NC(=O)[C@H](CCCNC(=N)N)NC(=O)[C@H](C)NC(=O)CNC(=O)[C@H](CCC(=O)O)NC(=O)[C@H](CCCNC(=N)N)NC(=O)[C@H](CC(C)C)NC(=O)[C@H](CCCNC(=N)N)NC(=O)[C@H](CO)NC(=O)[C@H](CC(C)C)NC(=O)[C@H](CCC(=O)O)NC(=O)[C@H](CO)NC(=O)[C@@H](NC(=O)[C@H](Cc1ccccc1)NC(=O)[C@@H](N)CCCNC(=N)N)[C@@H](C)O)C(=O)N[C@H](C(=O)O)C(C)C` [Peptide 124], under setting [1], the IC50 turned out to be 0.924 ± 0.237 µM.
For the compound `CC(C)C[C@H](NC(=O)CNC(=O)[C@H](CCC(N)=O)NC(=O)[C@H](CC(C)C)NC(=O)[C@H](CC(C)C)NC(=O)[C@H](CCCNC(=N)N)NC(=O)[C@H](CCC(N)=O)NC(=O)[C@H](CC(C)C)NC(=O)[C@H](CCCNC(=N)N)NC(=O)[C@H](C)NC(=O)CNC(=O)[C@H](CCC(=O)O)NC(=O)[C@H](CCCNC(=N)N)NC(=O)[C@H](CC(C)C)NC(=O)[C@H](CCCNC(=N)N)NC(=O)[C@H](CO)NC(=O)[C@H](CC(C)C)NC(=O)[C@H](CCC(=O)O)NC(=O)[C@H](CO)NC(=O)[C@@H](NC(=O)[C@H](Cc1ccccc1)NC(=O)[C@H](N)CCCNC(=N)N)[C@@H](C)O)C(=O)N[C@H](C(=O)O)C(C)C` [Peptide 125], the half-maximal inhibitory concentration (IC50) under setting [1] stood at 1.36 ± 0.322 µM.
The same measure, in the same setting: the result for `CC(C)C[C@H](NC(=O)CNC(=O)[C@H](CCC(N)=O)NC(=O)[C@H](CC(C)C)NC(=O)[C@H](CC(C)C)NC(=O)[C@H](CCCNC(=N)N)NC(=O)[C@H](CCC(N)=O)NC(=O)[C@H](CC(C)C)NC(=O)[C@H](CCCNC(=N)N)NC(=O)[C@H](C)NC(=O)CNC(=O)[C@H](CCC(=O)O)NC(=O)[C@H](CCCNC(=N)N)NC(=O)[C@H](CC(C)C)NC(=O)[C@H](CCCNC(=N)N)NC(=O)[C@H](CO)NC(=O)[C@H](CC(C)C)NC(=O)[C@H](CCC(=O)O)NC(=O)[C@H](CO)NC(=O)[C@@H](NC(=O)[C@H](C)NC(=O)[C@H](N)CCCNC(=N)N)[C@@H](C)O)C(=O)N[C@H](C(=O)O)C(C)C` [Peptide 126] reads 1.76 ± 0.322 µM.
Same read-out and setting: then `CC(C)C[C@H](NC(=O)CNC(=O)[C@H](CCC(N)=O)NC(=O)[C@H](CC(C)C)NC(=O)[C@H](CC(C)C)NC(=O)[C@H](CCCNC(=N)N)NC(=O)[C@H](CCC(N)=O)NC(=O)[C@H](CC(C)C)NC(=O)[C@H](CCCNC(=N)N)NC(=O)[C@H](C)NC(=O)CNC(=O)[C@H](CCC(=O)O)NC(=O)[C@H](CCCNC(=N)N)NC(=O)[C@H](CC(C)C)NC(=O)[C@H](CCCNC(=N)N)NC(=O)[C@H](CO)NC(=O)[C@H](CC(C)C)NC(=O)[C@H](CCC(=O)O)NC(=O)[C@H](CO)NC(=O)[C@H](C)NC(=O)[C@H](Cc1ccccc1)NC(=O)[C@H](N)CCCNC(=N)N)C(=O)N[C@H](C(=O)O)C(C)C` [Peptide 127], with 1.61 ± 0.185 µM; and `CC(C)C[C@H](NC(=O)CNC(=O)[C@H](CCC(N)=O)NC(=O)[C@H](CC(C)C)NC(=O)[C@H](CC(C)C)NC(=O)[C@H](CCCNC(=N)N)NC(=O)[C@H](CCC(N)=O)NC(=O)[C@H](CC(C)C)NC(=O)[C@H](CCCNC(=N)N)NC(=O)[C@H](C)NC(=O)CNC(=O)[C@H](CCC(=O)O)NC(=O)[C@H](CCCNC(=N)N)NC(=O)[C@H](CC(C)C)NC(=O)[C@H](CCCNC(=N)N)NC(=O)[C@H](CO)NC(=O)[C@H](CC(C)C)NC(=O)[C@H](CCC(=O)O)NC(=O)[C@H](C)NC(=O)[C@@H](NC(=O)[C@H](Cc1ccccc1)NC(=O)[C@H](N)CCCNC(=N)N)[C@@H](C)O)C(=O)N[C@H](C(=O)O)C(C)C` [Peptide 128] (H-[dR]FTAELSRLREGARLQRLLQGLV-OH), with 0.897 ± 0.108 µM.
The same measure, in the same setting: the result for `CC(C)C[C@H](NC(=O)CNC(=O)[C@H](CCC(N)=O)NC(=O)[C@H](CC(C)C)NC(=O)[C@H](CC(C)C)NC(=O)[C@H](CCCNC(=N)N)NC(=O)[C@H](CCC(N)=O)NC(=O)[C@H](CC(C)C)NC(=O)[C@H](CCCNC(=N)N)NC(=O)[C@H](C)NC(=O)CNC(=O)[C@H](CCC(=O)O)NC(=O)[C@H](CCCNC(=N)N)NC(=O)[C@H](CC(C)C)NC(=O)[C@H](CCCNC(=N)N)NC(=O)[C@H](CO)NC(=O)[C@H](CC(C)C)NC(=O)[C@H](C)NC(=O)[C@H](CO)NC(=O)[C@@H](NC(=O)[C@H](Cc1ccccc1)NC(=O)[C@H](N)CCCNC(=N)N)[C@@H](C)O)C(=O)N[C@H](C(=O)O)C(C)C` [Peptide 129] (H-[dR]FTSALSRLREGARLQRLLQGLV-OH) reads 1.14 ± 0.281 µM.
For the compound `CC(C)C[C@H](NC(=O)CNC(=O)[C@H](CCC(N)=O)NC(=O)[C@H](CC(C)C)NC(=O)[C@H](CC(C)C)NC(=O)[C@H](CCCNC(=N)N)NC(=O)[C@H](CCC(N)=O)NC(=O)[C@H](CC(C)C)NC(=O)[C@H](CCCNC(=N)N)NC(=O)[C@H](C)NC(=O)CNC(=O)[C@H](CCC(=O)O)NC(=O)[C@H](CCCNC(=N)N)NC(=O)[C@H](CC(C)C)NC(=O)[C@H](CCCNC(=N)N)NC(=O)[C@H](C)NC(=O)[C@H](CC(C)C)NC(=O)[C@H](CCC(=O)O)NC(=O)[C@H](CO)NC(=O)[C@@H](NC(=O)[C@H](Cc1ccccc1)NC(=O)[C@H](N)CCCNC(=N)N)[C@@H](C)O)C(=O)N[C@H](C(=O)O)C(C)C` [Peptide 131] (H-[dR]FTSELARLREGARLQRLLQGLV-OH), the IC50 under setting [1] is 0.998 ± 0.142 µM.
The same measure, in the same setting: the result for `CC(C)C[C@H](NC(=O)CNC(=O)[C@H](CCC(N)=O)NC(=O)[C@H](CC(C)C)NC(=O)[C@H](CC(C)C)NC(=O)[C@H](CCCNC(=N)N)NC(=O)[C@H](CCC(N)=O)NC(=O)[C@H](CC(C)C)NC(=O)[C@H](CCCNC(=N)N)NC(=O)[C@H](C)NC(=O)CNC(=O)[C@H](CCC(=O)O)NC(=O)[C@H](CCCNC(=N)N)NC(=O)[C@H](CC(C)C)NC(=O)[C@H](C)NC(=O)[C@H](CO)NC(=O)[C@H](CC(C)C)NC(=O)[C@H](CCC(=O)O)NC(=O)[C@H](CO)NC(=O)[C@@H](NC(=O)[C@H](Cc1ccccc1)NC(=O)[C@H](N)CCCNC(=N)N)[C@@H](C)O)C(=O)N[C@H](C(=O)O)C(C)C` [Peptide 132] (H-[dR]FTSELSALREGARLQRLLQGLV-OH) reads 2.48 ± 0.579 µM; that for `CC(C)C[C@H](NC(=O)CNC(=O)[C@H](CCC(N)=O)NC(=O)[C@H](CC(C)C)NC(=O)[C@H](CC(C)C)NC(=O)[C@H](CCCNC(=N)N)NC(=O)[C@H](CCC(N)=O)NC(=O)[C@H](CC(C)C)NC(=O)[C@H](CCCNC(=N)N)NC(=O)[C@H](C)NC(=O)CNC(=O)[C@H](CCC(=O)O)NC(=O)[C@H](CCCNC(=N)N)NC(=O)[C@H](C)NC(=O)[C@H](CCCNC(=N)N)NC(=O)[C@H](CO)NC(=O)[C@H](CC(C)C)NC(=O)[C@H](CCC(=O)O)NC(=O)[C@H](CO)NC(=O)[C@@H](NC(=O)[C@H](Cc1ccccc1)NC(=O)[C@H](N)CCCNC(=N)N)[C@@H](C)O)C(=O)N[C@H](C(=O)O)C(C)C` [Peptide 133] (H-[dR]FTSELSRAREGARLQRLLQGLV-OH), 0.884 ± 0.169 µM.

As a reminder, the IC50 is the concentration that inhibits the measured activity by half.
